Publication PMC11269473, “Monoamine oxidase inhibition properties of 2,1-benzisoxazole derivatives” (Molecular Diversity, 2023)
Like-named read-outs stand apart in the source and are kept apart here.

How the values were obtained:
[1] = molecular target: human MAO-B; parameters: method as in PMID 21175212; settings: competitive inhibitor; cited from earlier work
[2] = molecular target: T1, recombinant human MAO-A (Homo sapiens, UniProt P21397); test: MAO-A inhibition, IC50 determination with kynuramine as substrate (fluorescence of 4-hydroxyquinoline); format: biochemical; settings: 50 µM kynuramine, mean ± SD of triplicate, NI = no inhibition observed at 100 µM
T1 construct: purchased Sigma-Aldrich; host or cells: insect cells (microsomes)
T1 sequence (P21397 1-527): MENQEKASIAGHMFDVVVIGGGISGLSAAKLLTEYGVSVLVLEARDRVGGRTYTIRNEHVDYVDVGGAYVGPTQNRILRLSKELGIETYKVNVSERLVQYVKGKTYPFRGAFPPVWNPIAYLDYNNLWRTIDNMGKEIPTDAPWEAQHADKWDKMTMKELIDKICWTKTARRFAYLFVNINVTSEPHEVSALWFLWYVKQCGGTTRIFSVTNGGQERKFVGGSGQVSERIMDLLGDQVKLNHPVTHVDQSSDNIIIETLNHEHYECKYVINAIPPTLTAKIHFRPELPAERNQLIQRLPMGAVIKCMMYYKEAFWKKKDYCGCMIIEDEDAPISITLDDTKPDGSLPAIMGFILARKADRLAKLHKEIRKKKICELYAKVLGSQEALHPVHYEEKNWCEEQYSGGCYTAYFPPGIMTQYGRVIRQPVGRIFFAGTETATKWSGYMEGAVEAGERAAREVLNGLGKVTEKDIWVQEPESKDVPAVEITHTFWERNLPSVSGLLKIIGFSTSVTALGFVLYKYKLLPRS
Experimental: (§1) The MAO inhibition properties of the 2,1-benzisoxazole derivatives were investigated using the commercially available recombinant human MAO-A and MAO-B enzymes with kynuramine serving as substrate. MAO oxidizes kynuramine to yield 4-hydroxyquinoline, which was measured by fluorescence spectrophotometry.
(§2) For the MAO inhibition studies, a Varian Cary Eclipse fluorescence spectrophotometer was employed. Microsomes from insect cells containing recombinant human MAO-A and MAO-B (5 mg protein/mL) and kynuramine dihydrobromide were obtained from Sigma-Aldrich.
(§3) IC50 values for the inhibition of MAO were measured as described previously. Microsomes from insect cells containing recombinant human MAO-A and MAO-B (5 mg protein/mL) served as enzyme sources (Sigma-Aldrich) while kynuramine was used as non-specific MAO substrate. The enzyme reactions (200 µL reactions prepared in 96-well microtiter plates) contained phosphate buffer (100 mM, pH 7.4), 50 µM kynuramine and the test inhibitors at concentrations of 0.003–100 µM. […] The reactions were initiated with addition of MAO-A (0.0075 mg protein/mL) or MAO-B (0.015 mg protein/mL) and after 20 min of incubation at 37 °C, the reactions were terminated by the addition of 80 µL NaOH (2 N). The concentration of 4-hydroxyquinoline, the product of kynuramine oxidation by MAO, was measured by fluorescence spectrophotometry (λex = 310 nm; λem = 400 nm). IC50 values were estimated from sigmoidal plots of enzyme catalytic rate versus the inhibitor concentration (log[I]) which were constructed with the Prism software package (GraphPad). IC50 values were estimated in triplicate determinations from these plots and are expressed as mean ± standard deviation (SD).

[3] = molecular target: T2, recombinant human MAO-B (Homo sapiens, UniProt P27338); test: MAO-B inhibition, IC50 determination with kynuramine as substrate (fluorescence of 4-hydroxyquinoline); format: biochemical
T2 construct: purchased Sigma-Aldrich; host or cells: insect cells (microsomes)
T2 sequence (P27338 1-520): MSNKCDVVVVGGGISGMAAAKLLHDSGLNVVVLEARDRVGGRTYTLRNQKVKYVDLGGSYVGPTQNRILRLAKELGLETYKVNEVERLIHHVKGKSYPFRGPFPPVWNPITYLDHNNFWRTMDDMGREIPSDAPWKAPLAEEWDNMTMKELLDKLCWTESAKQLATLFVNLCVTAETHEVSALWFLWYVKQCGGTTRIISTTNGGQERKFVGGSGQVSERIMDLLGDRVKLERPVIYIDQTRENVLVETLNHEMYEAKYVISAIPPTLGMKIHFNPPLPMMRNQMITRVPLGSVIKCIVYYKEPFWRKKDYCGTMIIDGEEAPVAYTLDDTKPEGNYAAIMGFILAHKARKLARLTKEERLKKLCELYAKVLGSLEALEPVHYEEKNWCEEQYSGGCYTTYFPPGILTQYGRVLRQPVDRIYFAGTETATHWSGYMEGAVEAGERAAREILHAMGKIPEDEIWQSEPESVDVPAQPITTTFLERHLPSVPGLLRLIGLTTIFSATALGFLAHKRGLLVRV
Experimental: as §1, §2
as §3, with “The” for “The reactions were initiated with addition of MAO-A (0.0075 mg protein/mL) or MAO-B (0.015 mg protein/mL) and after 20 min of incubation at 37 °C, the reactions were terminated by the addition of 80 µL NaOH (2 N). The”

[4] = molecular target: T2, recombinant human MAO-B; test: Lineweaver–Burk plots / mode of MAO-B inhibition and Ki; format: biochemical
Experimental: These two compounds represent potent MAO inhibitors among the study compounds. […] Each line of the Lineweaver–Burk plots was constructed with the kynuramine concentration ranging from 15 to 250 μM.
The insets are replots of the slopes of the Lineweaver–Burk plots versus inhibitor concentration. The Ki value equals the negative of the x-axis intercept when y = 0
IC50 values for the inhibition of MAO were measured as described previously. Microsomes from insect cells containing recombinant human MAO-A and MAO-B (5 mg protein/mL) served as enzyme sources (Sigma-Aldrich) while kynuramine was used as non-specific MAO substrate. The enzyme reactions (200 µL reactions prepared in 96-well microtiter plates) contained phosphate buffer (100 mM, pH 7.4), 50 µM kynuramine and the test inhibitors at concentrations of 0.003–100 µM. Stock solutions of the test inhibitors were dissolved in DMSO and added to the enzyme reactions to give a final DMSO concentration of 4% (v/v). The reactions were initiated with addition of MAO-A (0.0075 mg protein/mL) or MAO-B (0.015 mg protein/mL) and after 20 min of incubation at 37 °C, the reactions were terminated by the addition of 80 µL NaOH (2 N). The concentration of 4-hydroxyquinoline, the product of kynuramine oxidation by MAO, was measured by fluorescence spectrophotometry (λex = 310 nm; λem = 400 nm). IC50 values were estimated from sigmoidal plots of enzyme catalytic rate versus the inhibitor concentration (log[I]) which were constructed with the Prism software package (GraphPad). IC50 values were estimated in triplicate determinations from these plots and are expressed as mean ± standard deviation (SD).
For each line, the concentration of kynuramine ranged from 15–250 µM.

Row | IC50 [2] | SI (selectivity index) ([3]; SI = IC50(MAO-A)/IC50(MAO-B)) | IC50 ([3]; recombinant human MAO-B, 50 µM kynuramine, mean ± SD of triplicate, NI = no inhibition observed at 100 µM) | mode of MAO-B inhibition ([4]; Lineweaver–Burk lines intersect on the y-axis) | Ki ([4]; global (shared) fitting of the inhibition data, read-out: Ki, MAO-B, global (shared) fitting to the Michaelis–Menten equation) | Ki ([4]; replot of slopes versus inhibitor concentration, Ki = −x when y = 0, kynuramine 15–250 µM, read-out: Ki, MAO-B, from replot of slopes of Lineweaver–Burk plots) | melting point | SMILES | Ki [1]
1 |  |  |  |  |  |  |  | NS(=O)(=O)Cc1noc2ccccc12 [Zonisamide, zonisamide] | 3100 nM
2 | 19 ± 1.2 µM | 1138 | 0.017 ± 0.0045 µM | competitive | 10 ± 1.5 nM | 6.2 nM | 240 to 241 °C | N#Cc1ccc(-c2onc3c(Cl)cc(Cl)cc23)cc1 [Compound 7a, 4-(5,7-Dichlorobenzo[c]isoxazol-3-yl)benzonitrile] | 
